Data set [1] is described as follows: Solubility in base oil. The data set is classed as physicochemical. How it is done:
(§1) Silver complex 1 was combined with PAO4 and 15W40 military-grade engine oil (FF oil). The complex was dissolved in the minimal amount of hexane (1 mL per 1 g silver complex) and then added to the oil to achieve complex concentrations of 1.0, 2.5 and 5.0 wt %. Before testing, the oil-silver complex mixtures were stirred with a magnetic stir bar for 30 minutes to ensure a homogeneous dispersion.
Solubility in base oil is an important property for tribologically promising high temperature additives, and is something that challenged previous generations of silver-organic additives.
Silver complex 1 was added to oil at 0.0, 1.0, 2.5, and 5 wt % loadings. A minimal amount of hexanes was added to aid in solubilizing the complex (1 mL hexanes/g of complex) before mixing with oil.

Data set [2] can be described thus: Wear analysis by white light interferometry of wear scars. As to conditions: disks of temperature ramp tests. The method, then:
After friction tests were completed, the disks were sonicated in a hexane bath to remove oil residue. The volume of the wear scar was measured using a Zygo NewView 7100 white light interferometer. The wear volume and material buildup around the wear scar were used to calculate the wear rate, which is defined as the volume removed per unit load per sliding distance. Each additive concentration in oil was tested twice for friction and wear performance. Energy-dispersive X-ray spectroscopy (EDS) on Hitachi S4800-II and Hitachi SU8030 Scanning Electron Microscopes (SEMs) was used to examine the morphology of the disk surface and deposited silver content.
The disks used in the temperature ramp tests (FIG. 8) were next analyzed by white light interferometry to determine the volume of the wear scars and the material buildup outside of the scar. The volume of material removed was normalized for load and the distance traveled during the test. […] The trend in wear rate is similar to the trend in COF (FIG. 7), with a 2.5 wt % loading producing the lowest amounts of wear. […] It is hypothesized that the increase in efficiency of additive 1 is attributable to the increased number of silver atoms/molecule and improved solubility in oil, which enables better dispersion of the additive in base oil.

Data set [3] can be described thus: Temperature-ramped pin-on-disk (ball-on-disk) tribometry, friction (COF). As to conditions: for friction reduction: temperature ramp 180 to 350° C. over 30 min. How it is done:
as §1
Table 1 outlines the experimental conditions used in this study. A ball bearing made of M50 bearing steel with 62 HRC hardness and a diameter of 4 mm is used to apply a vertical load to a 52100 steel disk with 50 HRC hardness and a diameter to 3″ as the disk rotates. The surface of the disk is coated with a 2 mL solution of 1 in the desired base oil. The sliding test conditions for all the experiments were: Normal load=25 N, sliding velocity=200 rpm. In the temperature ramp experiments, the temperature is increased from 180-350° C. over 30 min in order to detect any change in frictional characteristics as the oil degrades, and partially evaporates, and once the metallic Ag is deposited.
Silver complex 1 was added to oil at 0.0, 1.0, 2.5, and 5 wt % loadings. A minimal amount of hexanes was added to aid in solubilizing the complex (1 mL hexanes/g of complex) before mixing with oil. The oils used are PAO4, a base oil with no additives, and a military-grade 15W40 oil, which is fully formulated (FF) but contains no silver-containing additives (confirmed by elemental analysis).

For `CCCCCCc1c(C)n[n-]c1C.[Ag+]` [Compound 1, Ag(3,5-dimethyl-4-n-hexyl-pyrazole)], the “solubility in PAO4” value in data set [1] (5 wt % loading, gentle heating at 40° C.) is listed as “homogeneous solution”. In data set [1] (cloudy suspension at room temperature, heating to 40° C. and magnetic stirring, 1 mL hexanes/g of complex), the “solubility in oil (PAO4 or 15W40)” value is “dissolves fully”. The wear reduction in data set [2] (2.5 wt % loading in 15W40) came out at 70%; in data set [2] (2.5 wt % loading in PAO4), 60%. For the same molecule, the figures for the friction reduction in data set [3] (2.5 wt % loading in 15W40) and in data set [3] (2.5 wt % loading in PAO4) were 30% and 20%, respectively. Also, the “COF behaviour as the oil begins to degrade above ~275° C.” value in data set [3] (2.5 wt % loading in either base oil (PAO4, 15W40), temperature ramp 180 to 350° C.) was “the COF does not increase”.

The record behind these values is patent US9777021B2, “Lubricant additives” (Qatar Foundation, priority 2016, dated 2017).
